Test [1] deals with T1, Protein deacetylase HDAC6 (Homo sapiens, UniProt Q9UBN7).
T1 sequence (Q9UBN7 whole entry): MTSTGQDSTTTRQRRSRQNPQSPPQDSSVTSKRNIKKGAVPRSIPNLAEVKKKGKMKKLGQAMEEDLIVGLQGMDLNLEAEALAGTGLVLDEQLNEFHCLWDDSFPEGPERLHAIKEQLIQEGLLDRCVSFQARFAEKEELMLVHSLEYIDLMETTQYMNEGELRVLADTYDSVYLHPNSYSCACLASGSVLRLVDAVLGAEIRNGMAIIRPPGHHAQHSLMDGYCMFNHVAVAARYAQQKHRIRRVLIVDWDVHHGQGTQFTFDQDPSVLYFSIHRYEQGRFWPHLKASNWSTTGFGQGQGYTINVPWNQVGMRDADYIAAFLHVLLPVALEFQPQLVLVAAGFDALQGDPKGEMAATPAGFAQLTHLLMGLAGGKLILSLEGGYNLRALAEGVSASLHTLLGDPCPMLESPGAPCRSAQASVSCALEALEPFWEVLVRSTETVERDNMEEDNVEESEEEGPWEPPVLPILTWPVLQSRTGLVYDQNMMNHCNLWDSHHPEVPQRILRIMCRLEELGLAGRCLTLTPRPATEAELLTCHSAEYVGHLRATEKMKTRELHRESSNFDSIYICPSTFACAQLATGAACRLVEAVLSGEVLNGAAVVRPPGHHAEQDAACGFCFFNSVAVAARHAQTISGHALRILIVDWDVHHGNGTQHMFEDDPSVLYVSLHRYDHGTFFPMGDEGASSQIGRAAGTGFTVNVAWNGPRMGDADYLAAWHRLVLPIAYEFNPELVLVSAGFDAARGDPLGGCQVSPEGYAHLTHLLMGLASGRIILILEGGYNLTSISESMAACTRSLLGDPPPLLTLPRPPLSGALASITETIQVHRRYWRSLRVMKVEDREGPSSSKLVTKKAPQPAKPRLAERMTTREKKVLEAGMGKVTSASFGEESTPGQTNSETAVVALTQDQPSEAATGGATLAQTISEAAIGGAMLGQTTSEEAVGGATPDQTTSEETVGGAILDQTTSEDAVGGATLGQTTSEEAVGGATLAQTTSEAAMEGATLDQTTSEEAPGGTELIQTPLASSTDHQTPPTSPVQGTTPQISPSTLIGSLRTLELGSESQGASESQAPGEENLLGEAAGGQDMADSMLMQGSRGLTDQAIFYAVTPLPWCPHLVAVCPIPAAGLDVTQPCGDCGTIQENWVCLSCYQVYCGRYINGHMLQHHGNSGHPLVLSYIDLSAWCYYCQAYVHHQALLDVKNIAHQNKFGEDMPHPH
The test can be described thus: Inhibition of human HDAC6 using Arg-His-Lys-Lys (Ac) as substrate incubated for 2 hrs by fluorescence assay.

Test [2] deals with MDA-MB-231. The test can be described thus: Antiproliferative activity against human MDA-MB-231 cells incubated for 72 hrs by MTT assay. The format is functional, cell-based. As to conditions: MDA-MB-231, 72 h.
Test [3] addresses Histone deacetylase 1 (Homo sapiens, UniProt Q13547).
Description: Inhibition of human HDAC1 using Arg-His-Lys-Lys (Ac) as substrate incubated for 2 hrs by fluorescence assay
Test [4] has as its system MCF7. The test can be described thus: Antiproliferative activity against human MCF7 cells incubated for 72 hrs by MTT assay. It counts as functional, cell-based. As to conditions: MCF7, 72 h. (Formazan colour is commonly taken as a measure of viable cells.)
Test [5] concerns KMS-12-BM. The test can be described thus: Effect on human KMS-12-BM cells assessed as inhibition in H3K9Me2 level at 2 to 10 uM incubated for 24 hrs by Western blot analysis. The format is functional, cell-based. (In general: Immunoblotting shows a protein as a band on a membrane.)
Test [6] concerns the target Histone deacetylase 1/2/3 (Homo sapiens, UniProt Q13547+O15379+Q92769). The test is described as follows: Inhibition of HDAC1/2/3 in human KMS-12-BM cells assessed as increase in Ac-H3 level at 2 to 10 uM incubated for 24 hrs by Western blot analysis. The format is cell-based.
The test system of test [7] is Plasmodium falciparum. The test can be described thus: microbe, parasite or virus in culture. The format is functional, organism-based. As to conditions: 3D7, 48 h.
Description: Antimalarial activity against ring stage Plasmodium falciparum 3D7 incubated for 48 hrs by Hoechst 33342 staining based fluorescence based assay
The subject of test [8] is MDA-MB-231. The test can be described thus: Induction of apoptosis in human MDA-MB-231 cells assessed as necrotic cells at 1 uM incubated for 48 hrs by Annexin V-FITC/PI staining by flow cytometric analysis (reference value: 15%). The format is functional. (In general: In flow cytometry, cells or beads pass a laser one at a time.)
The subject of test [9] is MDA-MB-231. The test is described as follows: Induction of apoptosis in human MDA-MB-231 cells assessed as early apoptotic cells at 1 uM incubated for 48 hrs by Annexin V-FITC/PI staining by flow cytometric analysis (reference value: 5%). The format is functional.
The test system of test [10] is MDA-MB-231. The test can be described thus: Induction of apoptosis in human MDA-MB-231 cells assessed as viable cells at 1 uM incubated for 48 hrs by Annexin V-FITC/PI staining by flow cytometric analysis (reference value: 77%). The format is functional. As to conditions: MDA-MB-231, 48 h, read-out: Activity.
Test [11] has as its system MDA-MB-231. The test can be described thus: Induction of apoptosis in human MDA-MB-231 cells assessed as late apoptotic cells at 1 uM incubated for 48 hrs by Annexin V-FITC/PI staining by flow cytometric analysis (reference value: 3%). The format is functional.
The target in test [12] is Protein deacetylase HDAC6 (Homo sapiens) (UniProt Q9UBN7). The test can be described thus: Potency index, ratio of IC50 for vorinostat to IC50 for test compound for human HDAC6.
Test [13] in a line: Selectivity index, ratio of EC50 for human MDA-MB-231 cells to IC50 for ring stage Plasmodium falciparum K1. It counts as functional. Set-up: reference not given here.
The nature of test [14]: Selectivity index, ratio of EC50 for human MDA-MB-231 cells to IC50 for ring stage Plasmodium falciparum 3D7. Set-up: reference not given here. It counts as functional.
The test system of test [15] is Plasmodium falciparum. The test is described as follows: microbe, parasite or virus in culture. The format is functional, organism-based. As to conditions: K1, 48 h.
Description: Antimalarial activity against ring stage Plasmodium falciparum K1 incubated for 48 hrs by Hoechst 33342 staining based fluorescence based assay
The subject of test [16] is OPM-2. The test can be described thus: Antiproliferative activity against human OPM2 cells incubated for 48 hrs by CellTiter-Glo luminescent cell viability assay. It counts as functional, cell-based. As to conditions: OPM-2, 48 h.

The source made the active and inactive calls. No cut-off for these calls is given here.

Histone deacetylase 1, sequence (Q13547 whole entry): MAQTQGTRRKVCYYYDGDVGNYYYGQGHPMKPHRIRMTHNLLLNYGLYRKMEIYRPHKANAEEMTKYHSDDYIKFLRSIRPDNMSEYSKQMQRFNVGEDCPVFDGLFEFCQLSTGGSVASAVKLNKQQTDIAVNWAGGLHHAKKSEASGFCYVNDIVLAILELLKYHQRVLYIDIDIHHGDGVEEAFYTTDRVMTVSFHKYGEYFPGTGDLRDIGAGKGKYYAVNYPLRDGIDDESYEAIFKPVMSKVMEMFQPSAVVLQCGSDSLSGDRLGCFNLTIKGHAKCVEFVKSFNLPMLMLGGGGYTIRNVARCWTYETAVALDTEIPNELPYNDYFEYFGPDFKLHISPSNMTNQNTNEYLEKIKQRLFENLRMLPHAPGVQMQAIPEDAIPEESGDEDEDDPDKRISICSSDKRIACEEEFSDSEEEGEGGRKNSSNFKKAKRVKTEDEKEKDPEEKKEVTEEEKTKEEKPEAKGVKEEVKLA

As for `COc1cc2nc(N3CCN(C(=O)CCCCCCC(=O)NO)CC3)nc(NC3CCN(Cc4ccccc4)CC3)c2cc1OC`, the IC50 – broadly, the concentration that gives 50% inhibition – came out at 0.0355 µM in test [1] and 3.08 µM in [3]. The EC50 (usually the concentration needed to bring the measured effect to its halfway point) in test [2] was determined as 7 µM; in [4] it was 7.7 µM.

For `COc1cc2nc(N3CCCN(C)CC3)nc(NC3CCN(Cc4ccccc4)CC3)c2cc1OC`, in test [5], the outcome was Active. For the same molecule, in test [6], the inhibition result was “inactive”. Also, in [7], the IC50 amounted to 0.152 µM. For the same molecule, the EC50 in [2] came out at 2.9 µM; in test [4], 3.3 µM.

As to `COc1cccc2c1C(=O)c1c(O)c3c(c(O)c1C2=O)C[C@@](O)(C(=O)CO)C[C@@H]3O[C@H]1C[C@H](N)[C@H](O)[C@H](C)O1` [DOXORUBICIN], the results for the Activity in test [8], in [9] and in test [11] were 6%, 1% and 92%, respectively. Further, in test [10], the viability at 1 µM was determined as 1%.

Consider `COc1cc2nc(Nc3ccc(NC(=O)CCCCCCC(=O)NO)cc3)nc(NC3CCN(Cc4ccccc4)CC3)c2cc1OC`, for which the Ratio IC50 in [12] stood at 40. For the same molecule, the “Selectivity Index” value in test [13] is given as 6; in test [14], 26. Moreover, the IC50 is 0.2 µM in test [7], under 0.0005 µM in test [1], 1.03 µM in [3] and 0.878 µM in test [15]. The EC50 in test [2] was 5.1 µM; in test [4] it was 12 µM.

Consider `COc1cc2nc(Nc3ccc(NC(=O)CCCCCCC(=O)NO)cc3)nc(NC3CCN(Cc4ccc(F)cc4)CC3)c2cc1OC`, for which the “Selectivity Index” value in test [13] amounted to 17; in test [14], 44. Further, the IC50 is 0.111 µM in test [7], 0.00798 µM in test [1], 2.15 µM in [3] and 0.296 µM in [15]. The EC50 in [2] and in [4] was 4.9 µM each time.

On to `O=C(CCCCCCC(=O)Nc1ccccc1)NO` [VORINOSTAT], for which a half-maximal effect in [16] (EC50) was put at 2.9 µM.

On to `COc1cc2nc(Nc3ccc(NC(=O)CCCCCCC(=O)NO)cc3)nc(NC3CCN(Cc4ccccc4Cl)CC3)c2cc1OC`, for which the “Selectivity Index” value in test [13] is on record as 8; in test [14], 43. The IC50 came to 0.096 µM in [7], 0.00909 µM in test [1], 3.37 µM in test [3] and 0.489 µM in [15]. In addition, the EC50 in test [2] was found to be 4.1 µM; in test [4], 4.9 µM.

As to `O=C(CCCCCCC(=O)Nc1ccc(Nc2nc(NC3CCN(Cc4ccccc4)CC3)c3sccc3n2)cc1)NO`, the IC50 in test [1] worked out at 0.0059 µM; in test [3], 0.233 µM. For the same molecule, the EC50 in [2] and in test [4] was 2.9 µM each time.

Source of the values: ChEMBL document CHEMBL4311997, “Discovery of a potent histone deacetylase (HDAC) 3/6 selective dual inhibitor” (Eur J Med Chem, 2019).
